The text below walks through data of patent publication US20240325544A1, “CATIONIC LIPID FOR COVALENT MODIFICATION OF PEPTIDES” (PharmalN Corporation, priority 2023, published 2024).

The nature of data set [1]: Plasma concentration of respective natriuretic peptide by ELISA after SC bolus in CD-1 mice (pharmacokinetics, Table 3). To be noted: male, CD-1, mouse, in vivo, sc, 1 mg/kg. The method in brief: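 Peptides given SC in sterile water; retro-orbital blood at 2 and 6 h post-dose (two bleeds per mouse), K2EDTA plasma. Plasma cGMP by commercial immunoassay kit; ANP, BNP or CNP plasma levels by peptide-specific ELISA.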

Data set [2] has as its system Sprague Dawley rats. The note with it: rat, in vivo, sc.
Procedure: Animal care and treatment: Male Sprague Dawley rats aged 8 to 10 weeks (Charles River, Hollister, CA) were housed in groups of two (n=3/group) in disposable polypropylene cages with rodent cob bedding at the PharmaIN animal facility. Animals had ad libitum access to food (LabDiet Pico Rodent #5053; Animal Specialties, Woodburn, OR) and water. Temperature (68-74° F.) and humidity (30-60%) were maintained within a controlled range, and a 12-hour light/dark cycle was used. […] Animals were monitored closely during the first 4 hours following injection, then hourly throughout the rest of the day for any signs of swelling or discoloration (dilatory side effect), lethargy (side effect), ataxia (ataxia is used as a marker of toxicity). Rats were allowed a 1-week wash-out period between bolus doses. Following final observations, animals were humanely euthanized through CO2 asphyxiation.
The test system of data set [3] is E0771 breast cancer cells. In words: Orthotopic mouse model of breast cancer using E0771 cells (FIG. 6). Type of data set: in vivo, mice. The note with it: 0.3 mg/kg (0.1 μmol/kg) SC once daily, 5 days on, 2 days off, 3 cycles. How it is done: Error bars represent standard error of the mean. FIG. 6A) Tumor growth kinetics of 6-week-old female C57BL/6J mice (n=10 per group) that were inoculated with E0771 breast cancer cells (250,000 cells/mouse) in the mammary gland. Starting from Day 4 post-inoculation, cationic alkyl modified CNP derivatives (SEQ ID NO: 29, 30, and 31) were administered subcutaneously at a bolus dose of 0.3 mg/kg (0.1 μmol/kg) once daily for 5 days (5 days on, 2 days off) for 3 cycles; dose days indicated by gridlines. The control group, which received only buffer, was dosed in the same manner to establish the baseline tumor growth kinetics. […] Therefore, it can be concluded that the attachment of CNP is important for the observed anti-tumor activity. Statistical analysis was based on Dunnett's test performed by using GraphPad (n=10, 10, 10, and 10; Control, SEQ ID NO: 29, SEQ ID NO: 30, and SEQ ID NO: 31) **** P<0.0001 vs Control group.
Therefore, it can be concluded that the attachment of CNP is essential for anti-tumor activity. […] Animal care and treatment: Female C57BL/6J mice (6 weeks-old) were purchased from Kyudo (Saga, Japan) and maintained under a 12-hour light/12-hour dark cycle with free access to water and standard mouse diet (MF diet, Oriental Yeast Co., Ltd. Tokyo, Japan or PicoLab Rodent Diet 20, LabDiet Corp., St. Louis, Missouri). Implantation and drug administration: Mice were implanted with E0771 breast cancer cells (250,000 cells/mouse; Cosmo Bio Tokyo, Japan) in their left mammary gland and were randomized into groups of n=10. Starting from Day 4 post-inoculation, cationic alkyl modified CNP derivatives (SEQ ID NOs: 29, 30, and 31) were administered subcutaneously at a bolus dose of 0.3 mg/kg (0.1 μmol/kg; with a dose volume of 10 mL/kg) in sterile water for injection (Otsuka Pharmaceutical, Tokushima, Japan) once daily for 5 days (5 days on, 2 days off) for 3 cycles. The control group, which received only buffer, was dosed in the same manner to establish the baseline tumor growth kinetics. Tumor sizes were measured using calipers. Statistical analysis was based on Dunnett's test performed by using GraphPad (n=10, 10, 10, and 10; Control, SEQ ID NO: 29, SEQ ID NO: 30, and SEQ ID NO: 31) **** P<0.0001 vs Control group.

The subject of data set [4] is inflammatory cytokines (MCP1, IL-6, TNFα) in BALF. Put plainly: LPS ALI model: inflammatory cytokines in BALF by ELISA (Table 4). Type of data set: in vivo, mice. To be noted: LPS 0.05 mg/kg IT; SEQ 0.3 mg/kg SC, Sivelestat 150 mg/kg IP; 24 hours. How it is done: Animal care and treatment: Male C57BL/6J mice (6 weeks-old) were purchased from Kyudo (Saga, Japan) and maintained under a 12-hour light/12-hour dark cycle with free access to water and standard mouse diet (MF diet, Oriental Yeast Co., Ltd. Tokyo, Japan). Drug administration: Mice were administered LPS (0.05 mg/kg IT; Sigma-Aldrich) followed by treatment with various test articles, including Sivelestat (150 mg/kg; Nipro, Osaka, Japan), an inhibitor of human neutrophil elastase, injected IP as a positive control, and cationic alkyl modified CNPs (SEQ ID NO: 31, 29, and 30; 0.3 mg/kg (0.1 μmol/kg) SC). The test articles were administered immediately after LPS injection. Additionally, a normal control (NC) group without LPS administration and a Control group receiving only LPS without any test article were included. After 24 hours, the mice were euthanized under isoflurane anesthesia and BALF was harvested. Biochemical analysis: ALI and ARDS are often characterized by increased levels of inflammatory cytokines, including Macrophage Chemoattractant Protein-1 (MCP1), Interleukin-6 (IL-6), and […] (TNFα), in BALF. Decreases in their concentration can indicate the resolution of ALI/ARDS. Concentration of each cytokine (MCP1, IL-6, and TNFα) was measured using an ELISA kit (R&D SYSTEMS, Minneapolis M N). […] Statistical analysis was based on Dunnett's test performed by using GraphPad. (n=5, 8, 8, 8, and 8; NC, Control, PC, SEQ ID NO: 31, SEQ ID NO: 29). *** P<0.001, ** P<0.01, * P<0.05 vs each corresponding Control group.

Marks after values point to notes of the source that are not given here. Bridge positions count the residues as written; N and C are the ends. Square brackets hold non-standard residues; d marks the D form. Peptide text beside a SMILES is read from it. * marks the point of attachment. Palmitoyl = CCCCCCCCCCCCCCCC(=O)*; Dab = NCC[C@H](N)C(=O)O; Dap = NC[C@H](N)C(=O)O; AEEA = NCCOCCOCC(=O)O

In data set [1], `CCCCCCCCCCCCCCCC(=O)NCCOCCOCC(=O)NCCOCCOCC(=O)NCCOCCOCC(=O)N[C@@H](CCN)C(=O)N[C@@H](CCN)C(=O)NCC(=O)N[C@@H](CC(C)C)C(=O)N[C@@H](CO)C(=O)N[C@@H](CCCCN)C(=O)NCC(=O)N[C@H]1CSSC[C@@H](C(=O)O)NC(=O)CNC(=O)[C@H](CC(C)C)NC(=O)CNC(=O)[C@H](CO)NC(=O)[C@H](CCC(N)=O)NC(=O)[C@H](CO)NC(=O)CNC(=O)[C@H]([C@@H](C)CC)NC(=O)[C@H](CCCNC(=N)N)NC(=O)[C@H](CC(=O)O)NC(=O)[C@H](CC(C)C)NC(=O)[C@H](CCCCN)NC(=O)[C@H](CC(C)C)NC(=O)CNC(=O)[C@H](Cc2ccccc2)NC1=O` [SEQ ID NO: 29] ({Palmitoyl-AEEA-AEEA-AEEA}-[Dab][Dab]GLSKGCFGLKLDRIGSQSGLGC-OH; disulfide 8-24; C-terminus assumed) came in with a level at 2 h of 18 ng/mL and a level at 6 h of 8.93 ng/mL. For the same compound, the “Swelling and/or Discoloration in n = 3” value in data set [2] was “(3.1) μmol/kg”. The “Tumor volume compared to the Control group” value in data set [3] is recorded as “significant decrease in tumor volume”. In data set [4], the “IL-6 in BALF” value stood at 76 % Of Control, the “MCP1 in BALF” value worked out at 69 % Of Control and the “TNFα in BALF” value is 39** % Of Control.

In data set [1], `CCCCCCCCCCCCCCCC(=O)NCCOCCOCC(=O)NCCOCCOCC(=O)NCCOCCOCC(=O)N[C@@H](CN)C(=O)N[C@@H](CN)C(=O)NCC(=O)N[C@@H](CC(C)C)C(=O)N[C@@H](CO)C(=O)N[C@@H](CCCCN)C(=O)NCC(=O)N[C@H]1CSSC[C@@H](C(=O)O)NC(=O)CNC(=O)[C@H](CC(C)C)NC(=O)CNC(=O)[C@H](CO)NC(=O)[C@H](CCC(N)=O)NC(=O)[C@H](CO)NC(=O)CNC(=O)[C@H]([C@@H](C)CC)NC(=O)[C@H](CCCNC(=N)N)NC(=O)[C@H](CC(=O)O)NC(=O)[C@H](CC(C)C)NC(=O)[C@H](CCCCN)NC(=O)[C@H](CC(C)C)NC(=O)CNC(=O)[C@H](Cc2ccccc2)NC1=O` [SEQ ID NO: 31] ({Palmitoyl-AEEA-AEEA-AEEA}-[Dap][Dap]GLSKGCFGLKLDRIGSQSGLGC-OH; disulfide 8-24; C-terminus assumed) had a level at 2 h of 76.8 ng/mL and a level at 6 h of 14.8 ng/mL. The “Swelling and/or Discoloration in n = 3” value in data set [2] was “(3.3) μmol/kg”. Also, the “Tumor volume compared to the Control group” value in data set [3] was “significant decrease in tumor volume”. In data set [4], the “IL-6 in BALF” value is listed as 56* % Of Control, the “MCP1 in BALF” value was 50** % Of Control and the “TNFα in BALF” value was 28** % Of Control.
